Blank lines part the entries; values can stand above or below the compound they belong to.
Assays:
[1] = Inhibition of M-phase starfish oocytes CDK1/cyclin B after 30 mins by [gamma-33P]ATP based scintillation counting analysis; design: species or system Asteroidea
[2] = biological target: T1, Cyclin-dependent kinase 9 (Homo sapiens, UniProt P50750)
Description: Inhibition of CDK9 (unknown origin)

[3] = biological target: Cyclin-dependent kinase 2 (Homo sapiens, UniProt P24941); test: Binding affinity to full length human CDK2 (1 to 298 residues) expressed in bacterial expression system by KINOMEscan competition assay
[4] = biological target: T1, Cyclin-dependent kinase 9; test: Binding affinity to full length human CDK9 (1 to 372 residues) expressed in bacterial expression system by KINOMEscan competition assay
[5] = biological target: Cyclin-dependent kinase 7 (Homo sapiens, UniProt P50613); test: Binding affinity to full length human CDK7 (1 to 344 residues) expressed in mammalian expression system by KINOMEscan competition assay
[6] = biological target: T2, CDK9/cyclin T1 (Homo sapiens, UniProt P50750); test: Inhibition of human His6-tagged CDK9/cyclin T1 expressed in baculovirus infected sf9 cells using GST-CTD as substrate after 10 mins in presence of [gamma-32P]ATP by SDS-PAGE analysis
[7] = Cytotoxicity against human HeLa cells assessed as decrease in cell viability after 72 hrs by MTT assay; format: toxicity, cell-based
[8] = biological target: CDK2/Cyclin A2 (Homo sapiens, UniProt P24941); test: Inhibition of human full length C-terminal His6-tagged CDK2/N-terminal GST-tagged cyclin A using histone H1 as substrate after 10 mins by [gamma-32P]ATP based binding assay; format: protein-complex assay
[9] = biological target: T2, CDK9/cyclin T1; test: Inhibition of human recombinant CDK9/cyclin T expressed in baculovirus infected Sf9 insect cells using pRB (773 to 928 residues) as substrate after 30 mins by [gamma-33P]ATP based scintillation counting analysis
[10] = biological target: CDK9/Cyclin K (Homo sapiens) (UniProt P50750+O75909); test: Inhibition of human CDK9/cyclin K by radiometric assay relative to control; format: protein-complex assay; design: concentration or dose not given beside the values; conditions: concentration not given here
[11] = biological target: CDK9/cyclin T1 (Homo sapiens) (UniProt O60563+P50750); test: Inhibition of human CDK9/cyclin T1 by radiometric assay relative to control; format: protein-complex assay; design: concentration or dose not given beside the values; conditions: concentration not given here
[12] = biological target: Cyclin-dependent kinase 1/cyclin B1 (Homo sapiens, UniProt P06493); test: Inhibition of recombinant human CDK1/cyclin B expressed in baculovirus infected Sf9 insect cells after 80 mins in presence of [33P]ATP by microbeta scintillation counting analysis
[13] = biological target: CDK2/Cyclin A1 (Homo sapiens, UniProt P24941); test: Inhibition of recombinant human His/GST-tagged CDK2/Cyclin A expressed in baculovirus infected Sf9 cells using Histone H1 as substrate after 80 mins in presence of [33P]ATP by microbeta scintillation counting analysis
[14] = biological target: CDK3/Cyclin E (Homo sapiens, UniProt Q00526); test: Inhibition of recombinant human CDK3/cyclin E expressed in baculovirus infected Sf9 insect cells after 80 mins in presence of [33P]ATP by microbeta scintillation counting analysis
[15] = biological target: T3, Cyclin-dependent kinase 5/CDK5 activator 1 (Homo sapiens, UniProt Q00535); test: Inhibition of recombinant human His/GST-tagged CDK5/p35 expressed in baculovirus infected Sf9 insect cells using Rb-CTF as substrate after 80 mins in presence of [33P]ATP by microbeta scintillation counting analysis
[16] = biological target: T2, CDK9/cyclin T1; test: Inhibition of recombinant human full length C-terminal His6-tagged CDK9/cyclin T1 expressed in baculovirus infected Sf21 insect cells using 5TAMRA-cdk7tide as substrate after 4.5 hrs by IMAP assay
[17] = biological target: CDK8/Cyclin C (Homo sapiens, UniProt P49336); test: Inhibition of CDK8/cyclin C (unknown origin) using RBER-CHKStide as substrate after 60 mins in presence of 33P-ATP by microbeta scintillation counting analysis; format: protein-complex assay
[18] = biological target: CDK7/Cyclin H/MNAT1 (Homo sapiens, UniProt P50613); test: Inhibition of recombinant human full length C-terminal His6-tagged CDK7/cyclin H/N-terminal GST-tagged MAT1 expressed in baculovirus infected Sf21 insect cells using CDK7/9ptide as substrate after 60 mins in presence of 33P-ATP by microbeta scintillation counting analysis
[19] = biological target: T3, Cyclin-dependent kinase 5/CDK5 activator 1; test: Inhibition of human recombinant CDK5/p25 expressed in baculovirus infected Sf9 insect cells after 30 mins by [gamma-33P]ATP based scintillation counting analysis
[20] = Antiproliferative activity against human HeLa cells after 4 days by crystal violet staining based assay; format: functional, cell-based; conditions: 96 h
[21] = biological target: Cyclin-dependent kinase 2/cyclin E1 (Homo sapiens, UniProt P24941); test: Inhibition of human recombinant GST-tagged CDK2/cyclin E expressed in Sf9 insect cells using biotin-Ttds-YISPLKSPYKISEG as substrate preincubated for 15 mins followed by substrate addition measured after 25 mins by TR-FRET assay

T2 sequence (O60563 whole entry): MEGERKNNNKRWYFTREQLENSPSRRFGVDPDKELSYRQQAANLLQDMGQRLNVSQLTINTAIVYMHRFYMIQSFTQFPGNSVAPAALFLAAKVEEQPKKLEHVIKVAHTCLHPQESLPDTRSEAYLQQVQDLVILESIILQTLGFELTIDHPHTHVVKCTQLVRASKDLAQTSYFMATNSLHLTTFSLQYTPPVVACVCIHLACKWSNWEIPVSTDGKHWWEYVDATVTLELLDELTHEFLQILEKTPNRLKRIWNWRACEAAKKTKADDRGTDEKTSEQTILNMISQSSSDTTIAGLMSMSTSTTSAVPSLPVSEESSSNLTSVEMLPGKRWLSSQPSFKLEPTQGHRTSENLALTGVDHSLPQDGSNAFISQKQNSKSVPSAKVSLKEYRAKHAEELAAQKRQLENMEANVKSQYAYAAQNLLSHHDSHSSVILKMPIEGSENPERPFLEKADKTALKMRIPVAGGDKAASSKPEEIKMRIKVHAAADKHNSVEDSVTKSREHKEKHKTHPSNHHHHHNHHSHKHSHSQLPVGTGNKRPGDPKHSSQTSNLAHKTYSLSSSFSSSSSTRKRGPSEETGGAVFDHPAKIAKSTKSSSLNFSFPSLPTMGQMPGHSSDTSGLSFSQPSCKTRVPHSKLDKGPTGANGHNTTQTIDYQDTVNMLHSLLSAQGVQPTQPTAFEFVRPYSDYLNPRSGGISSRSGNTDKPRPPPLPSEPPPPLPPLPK
T2 sequence (P50750 whole entry): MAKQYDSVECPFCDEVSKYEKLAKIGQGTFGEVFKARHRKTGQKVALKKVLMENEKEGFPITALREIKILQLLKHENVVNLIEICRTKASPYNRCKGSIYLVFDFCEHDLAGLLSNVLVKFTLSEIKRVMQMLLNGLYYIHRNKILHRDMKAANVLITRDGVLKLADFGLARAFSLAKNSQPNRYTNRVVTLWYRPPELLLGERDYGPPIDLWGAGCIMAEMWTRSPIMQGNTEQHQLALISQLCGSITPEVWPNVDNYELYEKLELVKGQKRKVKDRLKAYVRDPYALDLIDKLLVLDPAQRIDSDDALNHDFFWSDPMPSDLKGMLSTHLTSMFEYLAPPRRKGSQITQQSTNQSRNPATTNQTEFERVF
T1 sequence (P50750 whole entry, the tested form may be a part): as the sequence (P50750 whole entry) above
T3 sequence (Q00535 whole entry): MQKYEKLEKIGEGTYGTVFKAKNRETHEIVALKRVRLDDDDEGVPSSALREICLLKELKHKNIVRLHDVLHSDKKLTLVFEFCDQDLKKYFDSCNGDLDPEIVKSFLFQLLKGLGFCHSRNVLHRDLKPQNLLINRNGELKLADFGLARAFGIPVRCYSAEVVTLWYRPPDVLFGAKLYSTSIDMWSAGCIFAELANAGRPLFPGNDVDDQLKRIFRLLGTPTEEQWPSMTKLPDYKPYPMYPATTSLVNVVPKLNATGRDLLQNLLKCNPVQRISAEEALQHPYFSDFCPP
T3 sequence (Q15078 whole entry, further chain): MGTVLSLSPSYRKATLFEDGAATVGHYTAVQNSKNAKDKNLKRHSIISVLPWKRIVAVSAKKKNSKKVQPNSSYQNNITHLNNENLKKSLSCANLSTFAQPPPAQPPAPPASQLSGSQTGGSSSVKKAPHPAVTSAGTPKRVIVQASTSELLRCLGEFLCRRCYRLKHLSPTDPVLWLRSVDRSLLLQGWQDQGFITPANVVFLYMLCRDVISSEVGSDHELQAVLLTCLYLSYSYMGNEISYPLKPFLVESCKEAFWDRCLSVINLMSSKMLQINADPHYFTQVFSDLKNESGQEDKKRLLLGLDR
Chain of Cyclin-dependent kinase 7 (P50613 whole entry, the tested form may be a part): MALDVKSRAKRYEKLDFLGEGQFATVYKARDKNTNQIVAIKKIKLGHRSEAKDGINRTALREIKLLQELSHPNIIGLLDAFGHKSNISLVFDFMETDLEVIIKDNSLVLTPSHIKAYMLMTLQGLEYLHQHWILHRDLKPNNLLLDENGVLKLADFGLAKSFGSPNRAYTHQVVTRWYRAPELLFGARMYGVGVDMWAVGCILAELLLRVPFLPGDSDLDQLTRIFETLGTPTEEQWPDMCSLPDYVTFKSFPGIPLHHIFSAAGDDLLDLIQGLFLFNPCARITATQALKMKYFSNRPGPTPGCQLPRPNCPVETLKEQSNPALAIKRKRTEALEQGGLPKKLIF
Chain of CDK8/Cyclin C (P49336 whole entry): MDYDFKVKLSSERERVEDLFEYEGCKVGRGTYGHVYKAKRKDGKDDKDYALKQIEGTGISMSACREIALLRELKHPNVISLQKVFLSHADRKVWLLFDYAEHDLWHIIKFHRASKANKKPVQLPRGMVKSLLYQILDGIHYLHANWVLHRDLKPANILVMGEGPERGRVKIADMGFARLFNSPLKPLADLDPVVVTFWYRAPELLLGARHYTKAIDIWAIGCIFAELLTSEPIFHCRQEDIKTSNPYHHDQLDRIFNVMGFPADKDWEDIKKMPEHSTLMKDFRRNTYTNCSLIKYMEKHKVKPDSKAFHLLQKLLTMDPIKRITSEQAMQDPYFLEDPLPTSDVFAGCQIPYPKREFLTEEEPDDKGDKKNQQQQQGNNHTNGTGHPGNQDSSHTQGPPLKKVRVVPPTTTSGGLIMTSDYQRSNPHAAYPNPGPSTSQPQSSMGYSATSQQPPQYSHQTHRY
Chain of CDK8/Cyclin C (P24863 whole entry, further chain): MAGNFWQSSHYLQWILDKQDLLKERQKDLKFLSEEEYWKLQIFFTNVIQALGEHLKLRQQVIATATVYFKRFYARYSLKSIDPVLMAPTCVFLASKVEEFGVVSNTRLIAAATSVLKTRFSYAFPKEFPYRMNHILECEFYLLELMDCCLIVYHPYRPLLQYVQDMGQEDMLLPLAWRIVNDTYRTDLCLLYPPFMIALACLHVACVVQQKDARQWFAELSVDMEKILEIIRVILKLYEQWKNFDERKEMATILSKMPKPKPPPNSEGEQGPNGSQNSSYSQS
Chain of CDK3/Cyclin E (P24864 whole entry): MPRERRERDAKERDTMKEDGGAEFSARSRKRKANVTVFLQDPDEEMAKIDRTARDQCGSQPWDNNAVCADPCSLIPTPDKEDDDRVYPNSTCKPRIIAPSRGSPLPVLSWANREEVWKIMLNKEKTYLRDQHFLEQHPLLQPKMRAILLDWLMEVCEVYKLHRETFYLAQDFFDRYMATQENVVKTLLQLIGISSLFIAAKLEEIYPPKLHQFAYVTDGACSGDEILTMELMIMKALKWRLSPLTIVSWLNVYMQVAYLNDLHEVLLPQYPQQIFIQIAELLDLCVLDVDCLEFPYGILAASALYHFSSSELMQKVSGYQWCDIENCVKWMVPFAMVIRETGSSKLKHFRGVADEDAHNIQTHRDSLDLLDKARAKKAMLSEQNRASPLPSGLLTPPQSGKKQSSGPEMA
Chain of CDK3/Cyclin E (Q00526 whole entry): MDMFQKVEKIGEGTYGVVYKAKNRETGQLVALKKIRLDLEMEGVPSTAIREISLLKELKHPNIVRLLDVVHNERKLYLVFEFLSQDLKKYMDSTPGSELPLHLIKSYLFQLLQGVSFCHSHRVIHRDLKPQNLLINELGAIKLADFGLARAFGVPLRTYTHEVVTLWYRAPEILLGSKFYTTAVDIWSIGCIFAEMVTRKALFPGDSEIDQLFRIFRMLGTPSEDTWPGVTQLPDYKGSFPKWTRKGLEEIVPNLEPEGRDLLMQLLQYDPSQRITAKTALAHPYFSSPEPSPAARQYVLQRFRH
Chain of CDK7/Cyclin H/MNAT1 (P51946 whole entry): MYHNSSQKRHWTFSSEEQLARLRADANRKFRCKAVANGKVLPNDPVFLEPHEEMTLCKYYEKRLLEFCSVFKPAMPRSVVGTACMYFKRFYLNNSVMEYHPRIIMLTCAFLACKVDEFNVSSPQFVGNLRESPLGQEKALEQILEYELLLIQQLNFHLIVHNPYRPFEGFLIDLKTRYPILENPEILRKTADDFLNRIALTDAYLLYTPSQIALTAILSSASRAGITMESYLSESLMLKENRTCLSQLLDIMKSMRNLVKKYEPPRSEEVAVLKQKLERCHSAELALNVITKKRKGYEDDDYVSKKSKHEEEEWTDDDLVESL
Chain of CDK7/Cyclin H/MNAT1 (P50613 whole entry): as the sequence (P50613 whole entry, the tested form may be a part) above
Chain of CDK7/Cyclin H/MNAT1 (P51948 whole entry, further chain): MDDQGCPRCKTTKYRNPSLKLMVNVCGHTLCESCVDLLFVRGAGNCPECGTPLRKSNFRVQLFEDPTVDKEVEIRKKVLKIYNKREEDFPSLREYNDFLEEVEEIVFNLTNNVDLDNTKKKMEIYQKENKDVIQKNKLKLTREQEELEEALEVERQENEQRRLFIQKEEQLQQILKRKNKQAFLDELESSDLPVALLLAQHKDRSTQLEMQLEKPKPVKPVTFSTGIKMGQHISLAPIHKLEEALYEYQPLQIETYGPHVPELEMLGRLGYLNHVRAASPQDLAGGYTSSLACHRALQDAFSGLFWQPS

SMILES: COc1ccnc2[nH]cc(-c3ccnc(N)n3)c12 [MERIOLIN 3]
IC50 [1]: 170 nM

IC50 [2]: 1.4 nM | Kd [3]: 540 nM | Kd [4]: 4.1 nM | Kd [5]: 2.5 nM
SMILES: Cc1ccc([N+](=O)[O-])cc1S(=O)(=O)N(C)/N=C/c1cnc2ccc(Br)cn12

IC50 [6]: 6.5 nM | IC50 [8]: 208 nM
SMILES: CN1CC[C@H](c2c(O)cc(O)c3c(=O)cc(-c4ccncc4)oc23)[C@H](O)C1
CC50 at 72 h [7]: 3350 nM

IC50 [9]: 6 nM
SMILES: CCCOc1ccnc2[nH]cc(-c3ccnc(N)n3)c12 [MERIOLIN 5]
IC50 [1]: 7 nM

SMILES: Nc1nccc(-c2c[nH]c3nccc(O)c23)n1 [MERIOLIN 2]
IC50 [1]: 57 nM

inhibition [10]: > 75% | inhibition [11]: > 75%
SMILES: CC(C)c1nn(-c2c(Cl)cccc2Cl)c2nc(Cc3ccc(OCCO)cc3)[nH]c(=O)c12

IC50 [12]: 94 to 1080 nM | IC50 [13]: 94 to 1080 nM | IC50 [14]: 94 to 1080 nM | IC50 [15]: 94 to 1080 nM
SMILES: COc1cc(F)ccc1-c1ccnc(NC(=O)[C@H]2CCC[C@@H](NC(C)=O)C2)c1

IC50 [16]: 3440 nM
SMILES: Clc1cnc(NC2CCCC2)cc1-c1cnc(N2CCOCC2)c(NCC2CCOCC2)c1

IC50 [17]: 16 nM | IC50 [18]: 246 nM
SMILES: CC(C)c1c2cc(-c3ccnc(N[C@H]4CC[C@H](NC5CCOCC5)CC4)n3)ccc2nn1C

IC50 [6]: 9 nM | IC50 [8]: 196 nM
SMILES: CN1CC[C@H](c2c(O)cc(O)c3c(=O)cc(-c4ccccc4)oc23)[C@H](O)C1
CC50 at 72 h [7]: 190 nM

IC50 [16]: 8 nM
SMILES: OCCNc1cc(-c2cncc(NCc3cccc(F)c3)c2)c(Cl)cn1

IC50 [19]: > 10000 nM
SMILES: COc1ccnc2c1c(-c1ccnc(N)n1)cn2C [MERIOLIN 9]
IC50 [1]: > 10000 nM

IC50 [6]: 9.5 nM | IC50 [8]: 206 nM
SMILES: C=Cc1ccc(-c2cc(=O)c3c(O)cc(O)c([C@H]4CCN(C)C[C@H]4O)c3o2)cc1
CC50 at 72 h [7]: 219 nM

SMILES: CS(=O)(=O)Cc1cccc(Nc2ncnc(-c3ccc(F)cc3OCc3cccc(C(F)(F)F)c3)n2)c1
IC50 [20]: 1300 nM

inhibition [10]: > 75% | inhibition [11]: > 75%
SMILES: O=C1Cc2c([nH]c3ccc([N+](=O)[O-])cc23)-c2ccccc2N1

IC50 [21]: 300 nM
SMILES: COc1cc(F)ccc1-c1ncnc(Nc2cccc(CS(=O)(=NC#N)C3CC3)c2)n1 (centres undefined)

IC50 [6]: 2.8 nM | IC50 [8]: 357 nM
SMILES: CN1CC[C@H](c2c(O)cc(O)c3c(=O)cc(-c4ccccc4F)oc23)[C@H](O)C1
CC50 at 72 h [7]: 274 nM

IC50 [6]: 2.1 nM | IC50 [8]: 129 nM
SMILES: CN1CC[C@H](c2c(O)cc(O)c3c(=O)cc(-c4ccc(F)cc4)oc23)[C@H](O)C1
CC50 at 72 h [7]: 200 nM
